Measured values as given in US4337248A, “Paromomycin containing compounds and method of use” (Farmitalia Carlo Erba S.p.A., priority 1979, dated 1982).
Converted amounts (≈) assume the structure as drawn. Read-outs that look alike come from different tables or passages of the source.

Columns and labels:
Type in all cases: cell-based
Escherichia coli K 12 = experiment: In vitro MIC by serial dilution in liquid medium, Escherichia coli K 12; settings: K12, Nutrient Broth Difco, 24 hours, 37° C, read-out: minimum inhibitory concentration (MIC)
Protocol: (§1) The "in vitro" tests are carried out with the method of serial dilutions in liquid medium (Nutrient Broth Difco) and the minimal inhibition concentration (MIC) is determined after 24 hours incubation at 37° C.

[1] = test system: Staphylococcus aureus 209P; experiment: In vitro MIC by serial dilution in liquid medium, Staphylococcus aureus 209P; settings: read-out: minimum inhibitory concentration (MIC)
Protocol: as §1

[2] = test system: Escherichia coli K 12-R 55; experiment: In vitro MIC by serial dilution in liquid medium, Escherichia coli K 12-R 55; settings: K12R55; Escherichia coli K 12-R 55, inactivating enzyme AAC (3) I; Nutrient Broth Difco, 24 hours, 37° C; read-out: minimum inhibitory concentration (MIC)
Protocol: as §1

[3] = test system: Escherichia coli K 12-R 112; experiment: In vitro MIC by serial dilution in liquid medium, Escherichia coli K 12-R 112; settings: K12R112, 24 h, read-out: minimum inhibitory concentration (MIC)
Protocol: as §1

[4] = test system: Escherichia coli K 12-R 148; experiment: In vitro MIC by serial dilution in liquid medium, Escherichia coli K 12-R 148; settings: K12R148; Escherichia coli K 12-R 148, inactivating enzyme APH (3') II; Nutrient Broth Difco, 24 hours, 37° C; read-out: minimum inhibitory concentration (MIC)
Protocol: as §1

bacteria = experiment: In vitro antibacterial activity (general statement)
Protocol: as §1

[5] = test system: resistant strains of gram-negative bacteria; experiment: In vitro antibacterial activity, resistant strains of gram-negative bacteria (summary in words); settings: against some resistant strains of gram-negative bacteria
Protocol: as §1

[6] = Staphylococcus aureus 209P, Nutrient Broth Difco, 24 hours, 37° C

Row | SMILES | MIC (Escherichia coli K 12) [µg/mL] | MIC [1, 6] [µg/mL] | MIC [2] [µg/mL] | MIC [3] [µg/mL] | MIC [4] [µg/mL] | antibacterial activity "in vitro" (bacteria) | activity compared with paromomycin [5] | MIC ([1]; Staphylococcus aureus, 209P, 24 h) [µg/mL]
1 | NC[C@@H]1O[C@H](O[C@H]2[C@@H](O)[C@H](O[C@@H]3[C@@H](O)[C@H](N)C[C@H](N)[C@H]3O[C@H]3O[C@H](CO)[C@H](Cl)[C@H](O)[C@H]3N)O[C@@H]2CO)[C@H](N)[C@@H](O)[C@@H]1O [(12), 4'-Deoxy-4'-epi-chloro-paromomycin] | 50 (≈ 78.9 µM) | 6.25 (≈ 9.86 µM) | 50 (≈ 78.9 µM) | > 200 | 200 (≈ 315 µM) | display antibacterial activity | – | –
2 | NC[C@@H]1O[C@H](O[C@H]2[C@@H](O)[C@H](O[C@@H]3[C@@H](O)[C@H](N)C[C@H](N)[C@H]3O[C@H]3O[C@H](CO)C[C@H](O)[C@H]3N)O[C@@H]2CO)[C@H](N)[C@@H](O)[C@@H]1O [(8), 4'-Deoxy paromomycin] | 12.5 (≈ 20.8 µM) | 1.55 (≈ 2.58 µM) | 6.25 (≈ 10.4 µM) | > 200 | 50 (≈ 83.4 µM) | display antibacterial activity | increased activity against some resistant strains of gram-negative bacteria | –
3 | NC[C@@H]1O[C@H](O[C@H]2[C@@H](O)[C@H](O[C@@H]3[C@@H](O)[C@H](N)C[C@H](N)[C@H]3O[C@H]3O[C@H](CO)[C@@H](O)[C@H](O)[C@H]3N)O[C@@H]2CO)[C@H](N)[C@@H](O)[C@@H]1O [paromomycin] | 12.5 (≈ 20.3 µM) | – | 6.25 (≈ 10.2 µM) | > 200 | > 200 | – | – | 1.55 (≈ 2.52 µM)
